The test system of the experiment is GM3. Put plainly: GM3 Elisa assay. The format is cell-based. Conditions: B16-FO cells, read-out: IC50_uM_Mean. How it is done: B16-FO cells from ATCC (American Tissue Culture Collection) were grown in DMEM media (ATCC) with 10% Fetal Bovine Serum (Hyclone) and Pen/Step/Glutamine (Biowhittaker). 4000 cells per well were plated on collagen coated plates (BD) and allowed to attach for 6 hours in an incubator (37 degrees, 5% CO2). After 6 hours the compounds and controls were added to the wells, the plates mixed and returned to the incubator for 2 days. Day of assay the cells were fixed for 20 minutes with 1% formaldehyde and then washed with Tris Buffered Saline (TBS) 3 times, 150 μl of TBS was left in the wells and 50 μl of goat serum (Invitrogen) was added, the plates mixed and incubated for 1 hour at room temperature. The plates were flicked and the cells incubated with the monoclonal Antibody to GM3 (NeuAc) (Cosmo) for 45 minutes as room temperature. The plates were then washed 3 times with TBS, leaving 150 μl of TBS in the wells and Peroxidase AffinPure F (ab′) 2 frag Gt Anti-mouse IgM, μ Chain Specific (Jackson Immuno Research) was added in 50 μl, the plates mixed and incubated for 45 minutes at room temperature. The plates were washed 3 times with TBS, flicked and blotted and 100 μl of Quantablu (Pierce) was added to the wells and incubated for 1 hour then read on a Fluorometer at Ex 325 and Em 420. The data was then analyzed using standard programs.

Setting [1] is: 48 h, Table 1, 2 days incubation.
Where [2] appears, read: 48 h, Table 2, 2 days incubation.

Our source for the IC50 values is patent publication US8304447B2, “2-acylaminopropoanol-type glucosylceramide synthase inhibitors” (Genzyme Corporation, priority 2007, dated 2012).

Like-named read-outs stand apart in the source and are kept apart here. Some results are limits rather than exact numbers.

For the molecule `O=C(CCCCCC1CCOCC1)N[C@H](CN1CCCC1)[C@H](O)c1ccc2c(c1)OCCO2` [Compound 559], the IC50 (Table 3 (IC 50 Values)) is 100 to 1000 nM.

Regarding `COc1ccc(C(=O)CCCCC(=O)N[C@H](CN2CCCC2)[C@H](O)c2ccc(OC)c(Cl)c2)cc1` [Compound 709], the IC50 (Table 3 (IC 50 Values)) is at most 100 nM. `CCCCCCCC(=O)N[C@H](CN1CC(F)(F)C1)[C@H](O)c1ccc2c(c1)OCCO2` [Compound 623]: the IC50 (Table 3 (IC 50 Values)) was 3000 to 10000 nM. Same read-out and setting: as for `COc1ccc(OCCC(=O)N[C@H](CN2CCCC2)[C@H](O)c2ccc3c(c2)OC(F)(F)C(F)(F)O3)cc1` [Compound 402], the figure is 3000 to 10000 nM. `Cc1nccn1C[C@@H](NC(=O)CCCOc1ccc(F)cc1)[C@H](O)c1ccc2c(c1)OCCO2` [Compound 570]: for the setting “Table 3 (IC 50 Values)”, the IC50 was in the range of 3000 to 10000 nM. The same measure, in the same setting: in the case of `CCCOC1CN(C[C@@H](NC(=O)CCCCCC(=O)c2ccc(OC)cc2)[C@H](O)c2ccc3c(c2)OCCO3)C1` [Compound 604] it was 3000 to 10000 nM. On to `COc1ccc(C(=O)CCCCC(=O)N[C@H](CN2CCCC2)[C@H](O)c2ccc(O)cc2)cc1` [Compound 414], for which, where the note is “Table 3 (IC 50 Values)”, the IC50 is 100 to 1000 nM. Take `CC(C)(C)c1ccc(C(=O)CCCCC(=O)N[C@H](CN2CCCC2)[C@H](O)c2ccc3c(c2)OCCO3)cc1` [Compound 155, 6-(4-tert-butylphenyl)-N-((1R,2R)-1-(2,3-dihydrobenzo[β][1,4]dioxin-6-yl)-1-hydroxy-3-(pyrrolidin-1-yl)propan-2-yl)-6-oxohexanamide]: the IC50 under setting [1] lay within 100 to 1000 nM. In the case of `COc1ccc(C(=O)CCCCCC(=O)N[C@H](CNC2CCCCC2)[C@H](O)c2ccc3c(c2)OCCO3)cc1` [Compound 458], for the setting “Table 3 (IC 50 Values)”, the IC50 was 3000 to 10000 nM. Same read-out and setting: as for `CCCCCCCC(=O)N[C@H](CN1CCCC1)[C@H](O)c1ccc2c(c1)OC(F)(F)C(F)(F)O2` [Compound 400], the figure is 3000 to 10000 nM.

Consider `CCCCCCOc1ccc([C@@H](O)[C@@H](CN2CC[C@H](O)C2)NC(=O)CCCOc2ccc(OC)cc2)cc1` [Compound 728], for which the IC50 (Table 3 (IC 50 Values)) is at most 100 nM. For the molecule `CCCCCCCC(=O)N[C@H](CN1CCCC1)[C@H](O)c1ccc(C(F)(F)F)cc1` [Compound 488], the IC50 (Table 3 (IC 50 Values)) lay in the range of 1000 to 3000 nM. `CCCCCCCCCCCCCCCC(=O)N[C@H](CN1CCCC1)[C@H](O)CCCCCCC` [Compound 312]: the IC50 under setting [2] fell in the range of 100 to 1000 nM. For the molecule `COC[C@@H]1CCCN1C[C@@H](NC(=O)CCCCCC(=O)c1ccc(OC)cc1)[C@@H](O)c1ccc2c(c1)OCCO2` [Compound 533], the IC50 (Table 3 (IC 50 Values)) is 100 to 1000 nM.

On to `CCCCCCCCCCCCCCCC(=O)N[C@H](CNCc1ccccc1)[C@H](O)c1ccc2c(c1)OCCO2` [Compound 678], for which, under “Table 3 (IC 50 Values)”, the IC50 was in the range of 3000 to 10000 nM. For the molecule `COCCOc1ccc([C@@H](O)[C@@H](CN2CCCC2)N(CCOC)C(=O)CCCCC(=O)c2ccc(OC)cc2)cc1` [Compound 423], the IC50 (Table 3 (IC 50 Values)) was 1000 to 3000 nM. As to `CCCCCCOc1ccc([C@@H](O)[C@@H](CN2CCCC2)NC(=O)CCOc2ccc(OC)cc2)cc1` [Compound 413], the IC50 (Table 3 (IC 50 Values)) was at most 100 nM. On the same count and under the same terms, in the case of `CCCCCCCC(=O)N[C@H](CN1CC2CC2C1)[C@H](O)c1ccc2c(c1)OCCO2` (stereo partly shown) [Compound 517] it was 100 to 1000 nM. In the case of `O=C(Cc1cccc(F)c1)N[C@H](CN1CCCC1)[C@H](O)c1ccc2c(c1)OCCO2` [Compound 53, N-((1R,2R)-1-(2,3-dihydrobenzo[β][1,4]dioxin-6-yl)-1-hydroxy-3-(pyrrolidin-1-yl)propan-2-yl)-2-(3-fluorophenyl)acetamide], the IC50 under setting [1] is 1000 to 3000 nM. Same read-out and setting: in the case of `C[C@H](NC(=O)N[C@H](CN1CCCC1)[C@H](O)c1ccc2c(c1)OCCO2)c1cccc2ccccc12` [Compound 71, 1-((1R,2R)-1-(2,3-dihydrobenzo [β][1,4]dioxin-6-yl)-1-hydroxy-3-(pyrrolidin-1-yl)propan-2-yl)-3-((S)-1-(naphthalen-1-yl)ethyl)urea] it was 100 to 1000 nM. As to `COc1ccc([C@@H](O)[C@@H](CN2CCCC2)NC(=O)CCOc2ccc(C)cc2)cc1` [Compound 247, N-((1R,2R)-1-hydroxy-1-(4-methoxyphenyl)-3-(pyrrolidin-1-yl)propan-2-yl)-3-(p-tolyloxy)propanamide], under setting [2], the IC50 was at most 100 nM.

Turning to `COc1ccc(C(=O)CCCCCC(=O)N[C@H](CN2CC[C@@H](O)C2)[C@H](O)c2ccc3c(c2)OCCO3)cc1` [Compound 518], the IC50 (Table 3 (IC 50 Values)) was 100 to 1000 nM.

With `CCCCCCCC(=O)N[C@H](CNCCCC)[C@H](O)c1ccc2c(c1)OCCO2` [Compound 310], under setting [2], the IC50 is 1000 to 3000 nM. `O=C(CCCCS(=O)(=O)C12CC3CC(CC(C3)C1)C2)N[C@H](CN1CCCC1)[C@H](O)c1ccc2c(c1)OCCO2` [Compound 560]: for the setting “Table 3 (IC 50 Values)”, the IC50 was 100 to 1000 nM. On to `CC(C)Oc1ccc([C@@H](O)[C@@H](CN2CCC(F)C2)NC(=O)CCOc2ccc(Cl)cc2)cc1` (stereo partly shown) [Compound 725], for which the IC50 (Table 3 (IC 50 Values)) lay in the range of 100 to 1000 nM.

On to `COc1ccc(CCCC(=O)N[C@H](CN2CCCC2)[C@H](O)c2ccc(OC)cc2)cc1` [Compound 263], for which the IC50 under setting [2] lay within 100 to 1000 nM.

Consider `COc1ccc(C(=O)CCCCCC(=O)N[C@H](CN2CCCC2)[C@H](O)c2ccc(OC)c(C)c2)cc1` [Compound 390], for which the IC50 (Table 3 (IC 50 Values)) is at most 100 nM. Still for that read-out and setting: in the case of `CC1CCN(C[C@@H](NC(=O)CCCCCC(=O)c2ccccc2)[C@H](O)c2ccc3c(c2)OCCO3)CC1` [Compound 612] it was 3000 to 10000 nM. For `COC(=O)CO[C@H](c1ccc2c(c1)OCCO2)[C@@H](CN1CCCC1)NC(=O)CCOc1ccc(OC)cc1` [Compound 275], the IC50 under setting [2] is at most 100 nM. Regarding `COc1ccc(C(=O)CCCC(=O)N[C@H](CN2CC[C@H](O)C2)[C@H](O)c2ccc(OC(C)C)cc2)cc1` [Compound 732], the IC50 (Table 3 (IC 50 Values)) lay in the range of 100 to 1000 nM. Same read-out and setting: as for `COc1ccc(C(=O)CCCCCC(=O)N[C@H](CN2CC(F)(F)C2)[C@H](O)c2ccc3c(c2)OCCO3)cc1` [Compound 618], the figure is 3000 to 10000 nM. On the same count and under the same terms, in the case of `CCCCN(CCCC)C[C@@H](NC(=O)CCCCCC(=O)c1ccc(OC)cc1)C(O)c1ccc2c(c1)OCCO2` (stereo partly shown) [Compound 459] it was 3000 to 10000 nM. Same read-out and setting: as for `COc1ccc(OCCC(=O)N[C@H](CN2CCCC2)[C@H](O)c2ccc(OCc3ccccc3)cc2)cc1` [Compound 705], the figure is at most 100 nM. In the case of `CC(C)Oc1ccc(C(=O)CCCCC(=O)N[C@H](CN2CCCC2)[C@H](O)c2ccc3c(c2)OCO3)cc1` [Compound 266], the IC50 under setting [2] is at most 100 nM.

Consider `CCCCCCCC(=O)N[C@H](CN1CCC[C@H]1C)[C@@H](O)c1ccc2c(c1)OCCO2` [Compound 530], for which the IC50 (Table 3 (IC 50 Values)) lay in the range of 3000 to 10000 nM. For `COc1ccc(OCCC(=O)N[C@H](CN2CCOCC2)[C@H](O)c2ccc3c(c2)OCCO3)cc1` [Compound 257, N-((1R,2R)-1-(2,3-dihydrobenzo[β][1,4]dioxin-6-yl)-1-hydroxy-3-morpholinopropan-2-yl)-3-(4-methoxyphenoxy)propanamide], the IC50 under setting [2] fell in the range of 3000 to 10000 nM. `COc1ccc(C(=O)CCCCCC(=O)N[C@H](CN2CCCC2)[C@H](O)c2ccc(-c3ccccc3)cc2)cc1` [Compound 693]: the IC50 (Table 3 (IC 50 Values)) was at most 100 nM. Still for that read-out and setting: as for `COc1ccc(S(=O)(=O)CCCCCC(=O)N[C@H](CN2CCCC2)[C@H](O)c2ccc3c(c2)OCCO3)cc1` [Compound 555], the figure is 100 to 1000 nM; as for `CCCOC1CC(C[C@@H](NC(=O)CCOc2ccc(OC)cc2)[C@H](O)c2ccc3c(c2)OCCO3)C1` (stereo partly shown) [Compound 597], 3000 to 10000 nM; as for `CCCCCCCC(=O)N[C@H](CN1CCC(C)CC1)[C@H](O)c1ccc2c(c1)OCCO2` [Compound 611], 3000 to 10000 nM.
